From ChEMBL document CHEMBL1268922, “Xiamycin, a pentacyclic indolosesquiterpene with selective anti-HIV activity from a bacterial mangrove endophyte” (Bioorg Med Chem Lett, 2010)
Values after ≈ are worked out from the molar mass of the structure shown. Active and inactive are the calls of the source. No cut-off for these calls is given here.

How the values were obtained:
[1] = tested on: Pseudomonas aeruginosa; test: Antimicrobial activity against Pseudomonas aeruginosa SG137/B7 at 50 ug after 24 hrs by paper disk method; format: functional, organism-based
[2] = tested on: Escherichia coli; test: Antimicrobial activity against Escherichia coli SG458 at 50 ug after 24 hrs by paper disk method; format: functional, organism-based
[3] = tested on: Sporobolomyces salmonicolor; test: Antimicrobial activity against Sporobolomyces salmonicolor SBUG 549 at 50 ug after 24 hrs by paper disk method; format: functional, organism-based
[4] = tested on: Candida albicans; test: Antimicrobial activity against Candida albicans at 50 ug after 24 hrs by paper disk method; format: functional, organism-based
[5] = tested on: Penicillium chrysogenum; test: Antimicrobial activity against Penicillium notatum JP36 at 50 ug after 24 hrs by paper disk method; format: functional, organism-based
[6] = tested on: Bacillus subtilis; test: Antimicrobial activity against Bacillus subtilis ATCC 6633 at 50 ug after 24 hrs by paper disk method; format: functional; conditions: ATCC 6633, 24 h, read-out: IZ
[7] = tested on: Mycolicibacterium vaccae; test: Antimicrobial activity against Mycobacterium vaccae IMET 10670 at 50 ug after 24 hrs by paper disk method; format: functional; conditions: IMET 10670, 24 h, read-out: IZ
[8] = tested on: Pseudomonas aeruginosa; test: Antimicrobial activity against Pseudomonas aeruginosa K799/61 at 50 ug after 24 hrs by paper disk method; format: functional; conditions: K799/61, 24 h, read-out: IZ
[9] = tested on: Staphylococcus aureus; test: Antimicrobial activity against Staphylococcus aureus SG 511 at 50 ug after 24 hrs by paper disk method; format: functional; conditions: SG 511, 24 h, read-out: IZ
[10] = tested on: Staphylococcus aureus; test: Antimicrobial activity against Staphylococcus aureus 134/94 R9 at 50 ug after 24 hrs by paper disk method; format: functional; conditions: 134/94 R9, 24 h, read-out: IZ
[11] = tested on: Enterococcus faecalis; test: Antimicrobial activity against Enterococcus faecalis 1528 R10 at 50 ug after 24 hrs by paper disk method; format: functional; conditions: 1528 R10, 24 h, read-out: IZ
[12] = tested on: HT-29; test: Antitumor activity against human HT-29 by modified propidium iodide assay; format: functional, cell-based
[13] = Antitumor activity against human GXF251L by modified propidium iodide assay; format: functional
[14] = Antitumor activity against human LXFA 629L by modified propidium iodide assay; format: functional
[15] = Antitumor activity against human LXFL 529L by modified propidium iodide assay; format: functional
[16] = Antitumor activity against human MAXF 401NL by modified propidium iodide assay; format: functional
[17] = Antitumor activity against human MEXF 462NL by modified propidium iodide assay; format: functional
[18] = Antitumor activity against human OVXF 899L by modified propidium iodide assay; format: functional
[19] = Antitumor activity against human PAXF 1657L by modified propidium iodide assay; format: functional
[20] = tested on: CWR22R; test: Antitumor activity against human 22Rv1 by modified propidium iodide assay; format: functional, cell-based
[21] = Antitumor activity against human PXF 1752L by modified propidium iodide assay; format: functional
[22] = Antitumor activity against human RXF 486L by modified propidium iodide assay; format: functional
[23] = Antitumor activity against human UXF 1138L by modified propidium iodide assay; format: functional
[24] = tested on: Human immunodeficiency virus 1; test: Inhibition of HIV1 NL4-3 replication in CD4-CCR5 expressing human TZM-bl cells assessed as decrease in p24 antigen production; format: functional, organism-based
[25] = tested on: L929; test: Antiproliferative activity against mouse L929 cells; format: functional
[26] = tested on: K562; test: Antiproliferative activity against human K562 cells; format: functional
[27] = tested on: HeLa; test: Antiproliferative activity against human HeLa cells; format: functional
[28] = tested on: Human immunodeficiency virus 1; test: Inhibition of HIV1 NL4-3 replication in CD4-CXCR4 expressing human TZM-bl cells assessed as decrease in p24 antigen production; format: functional, organism-based

| SMILES | Activity [1] | Activity [2] | Activity [3] | Activity [4] | Activity [5] | zone of inhibition at 50 µg/disc [6] | zone of inhibition at 50 µg/disc [7] | zone of inhibition at 50 µg/disc [8] | zone of inhibition at 50 µg/disc [9] | zone of inhibition at 50 µg/disc [10] | zone of inhibition at 50 µg/disc [11] | IC50 [12] | IC50 [13] | IC50 [14] | IC50 [15] | IC50 [16] | IC50 [17] | IC50 [18] | IC50 [19] | IC50 [20] | also measured |
| --- | --- | --- | --- | --- | --- | --- | --- | --- | --- | --- | --- | --- | --- | --- | --- | --- | --- | --- | --- | --- | --- |
| COC(=O)[C@]1(C)[C@@H](O)CC[C@]2(C)c3cc4c(cc3CC[C@@H]12)[nH]c1ccccc14 | inactive | inactive | inactive | inactive | Active | 13.5 mm | 14 mm | 15 mm | 15 mm | 14 mm | 12 mm | 9.97 µM | 7.63 µM | 8.52 µM | 10 µM | 10.8 µM | 9.62 µM | 11.7 µM | 12.4 µM | 9.87 µM | IC50 [21]: 12.8 µM; IC50 [22]: 11.1 µM; IC50 [23]: 8.54 µM |
| C[C@@]1(C(=O)O)[C@@H](O)CC[C@]2(C)c3cc4c(cc3CC[C@@H]12)[nH]c1ccccc14 [XIAMYCIN] | inactive | inactive | inactive | inactive | Active | 13.5 mm | 14 mm | 15 mm | 15 mm | 14 mm | 12 mm | > 30 µM | 30 µM | > 30 µM | > 30 µM | > 30 µM | > 30 µM | > 30 µM | > 30 µM | > 30 µM | inhibition [24]: Active; IC50 [21]: > 30 µM; IC50 [22]: > 30 µM; IC50 [23]: > 30 µM; GI50 [25]: 49.8 µg/mL (≈ 137 µM); GI50 [26]: 36.7 µg/mL (≈ 101 µM); CC50 [27]: 44.3 µg/mL (≈ 122 µM); inhibition [28]: Active |
